Common to all, as to type: cell-based
Assay [1] relates to human melanoma cells A375 (with a mutated B-RAF). Briefly: In vitro cell proliferation assay, A375. To be noted: A-375, 72 hours treatment, cell number by ATP monitoring system. As to the method: (§1) In Vitro Cell Proliferation Assay Exponentially growing human melanoma cells A375 (with a mutated B-RAF) and human melanoma cells Mewo (with wild-type B-Raf) were seeded and incubated at 37° C. in a humidified 5% CO2 atmosphere. After 24 hours, scalar doses of the compound were added to the medium and cells oncubated for 72 hours. At the end of treatment, cells were washed and counted. Cell number was determined by a cellular adenosine triphosphate monitoring system. Cell proliferation was compared to control cells and the concentration inhibiting cell growth by 50% was calculated. p-MAPK (T202/Y204) ArrayScan Assay

Assay [2] deals with p-MAPK (T202/Y204) in A375 human melanoma cells, having a mutated B-RAF. Briefly: p-MAPK (T202/Y204) ArrayScan assay. To be noted: A-375, A375 cells treated 1.5 or 2 hours, cytoplasmatic p-MAPK fluorescence intensity, read-out: Array Scan A375 IC50. How it is done:
A375 human melanoma cells, having a mutated B-RAF, are seeded in 384-well poly-lysine coated plates (Matrix) at a density of 1000 cells/well with appropriate medium supplemented with 10% FCS and incubated for 16-24 hours. Cells are treated for 1.5 or 2 hours with increasing doses of compounds (starting dose 10 μM, dilution factor 2.5). At the end of the treatment cells are fixed with p-formaldehyde 3.7% for 15-30 min, then washed twice with D-PBS (80 µl/well) and permeabilized with D-PBS containing 0.1% Triton X-100 and 1% BSA (Sigma-Aldrich) for 15 minutes at room temperature (staining solution). Anti-phospho-MAPK (T202/Y204) monoclonal antibody E10 (Cell Signaling, cat. #9106) diluted 1:100 is added in staining solution and incubated for 1 hour at 37° C. After removal of the primary antibody solution, the anti-mouse Cy™2-conjugated (Green) secondary antibody (Amersham) diluted 1:500 in staining solution containing 2 μg/ml DAPI is added. The plate is incubated for 1 hour at 37° C., washed twice and then red with Cellomics' ArrayScan VTI (4 fields/well, CytoNucTrans algorithm).
The parameter “MEAN_RingAvgIntenCh2”, which measures the mean cytoplasmatic fluorescence intensity associated to p-MAPK staining, is reported as the final result.

Assay [3] has as its system human melanoma cells Mewo (with wild-type B-Raf). The assay can be described thus: In vitro cell proliferation assay, Mewo. Conditions: 72 hours treatment, cell number by ATP monitoring system. As to the method:
as §1

SMILES strings stand for the structures. pIC50: −log10 of the molar value. Counter-ions that a name gives are not always drawn. Where only a bound is given, the exact number is not on record here.

The values below come from patent US8969366B2, “Substituted pyrimidinylpyrrolopyridinone derivatives, process for their preparation and their use as kinase inhibitors” (Nerviano Medical Sciences S.R.L., priority 2009, dated 2015).

One may read the pIC50 as the negative decadic logarithm of the IC50, by convention in mol/L. On to `Cn1c2c(c(-c3cccc(NC(=O)Nc4ccc(C(F)(F)F)cc4)c3)c1-c1ccnc(N)n1)C(=O)NCC2` [compound 1, 1-{3-[2-(2-Amino-pyrimidin-4-yl)-1-methyl-4-oxo-4,5,6,7-tetrahydro-1H-pyrrolo-[3,2-c]pyridin-3-yl]-phenyl}-3-(4-trifluoromethyl-phenyl)-urea], for which the pIC50 in assay [1] is 5.09; in assay [2] it was 5.25; in assay [3], under 5.00.
The matching figures for `Cn1c(-c2nc(N)ncc2C#Cc2cccc(O)c2)cc2c1CCNC2=O` [compound 2, 2-[2-Amino-5-(3-hydroxy-phenylethynyl)-pyrimidin-4-yl]-1-methyl-1,5,6,7-tetrahydro-pyrrolo[3,2-c]pyridin-4-one]: 5.22, under 5.00 and 5.10.
The matching figures for `Nc1ncc(C#Cc2cccc(O)c2)c(-c2cc3c(n2CCF)CCNC3=O)n1` [compound 3, 2-[2-Amino-5-(3-hydroxy-phenylethynyl)-pyrimidin-4-yl]-1-(2-fluoro-ethyl)-1,5,6,7-tetrahydro-pyrrolo[3,2-c]pyridin-4-one]: 5.19, 6.15 and 5.32.
The corresponding values for `Cn1c(-c2ccnc(NC(=O)c3cc(Br)cs3)n2)cc2c1CCNC2=O` [compound 4, 4-Bromo-thiophene-2-carboxylic acid[4-(1-methyl-4-oxo-4,5,6,7-tetrahydro-1H-pyrrolo[3,2-c]pyridin-2-yl)-pyrimidin-2-yl]-amide] are 6.31, 6.34 and 5.61.
For the compound `Cn1c(-c2ccnc(NCc3cccc(Cl)c3)n2)cc2c1CCNC2=O` [compound 6, 2-[2-(3-Chloro-benzylamino)-pyrimidin-4-yl]-1-methyl-1,5,6,7-tetrahydro-pyrrolo[3,2-c]pyridin-4-one hydrochloride], the pIC50 in assay [1] is 5.75; in assay [2], 5.68; in assay [3] it was 5.24.
The corresponding values for `Cn1c(-c2ccnc(NCc3cc(Br)cs3)n2)cc2c1CCNC2=O` [compound 7, 2-{2-[(4-Bromo-thiophen-2-ylmethyl)-amino]-pyrimidin-4-yl}-1-methyl-1,5,6,7-tetrahydro-pyrrolo[3,2-c]pyridin-4-one hydrochloride] are 5.54, 5.67 and 5.01.
`Cn1c(-c2ccnc(C#Cc3cccc(Cl)c3)n2)cc2c1CCNC2=O` [compound 8, 2-[2-(3-Chloro-phenylethynyl)-pyrimidin-4-yl]-1-methyl-1,5,6,7-tetrahydro-pyrrolo[3,2-c]pyridin-4-one]: the figures for the pIC50 in assay [1], in assay [2] and in assay [3] were 6.68, 6.03 and 6.09, respectively.
The matching figures for `Cn1c(-c2ccnc(/C=C/c3cccc(Cl)c3)n2)cc2c1CCNC2=O` [compound 9, 2-{2-[(E)-2-(3-Chloro-phenyl)-vinyl]-pyrimidin-4-yl}-1-methyl-1,5,6,7-tetrahydro-pyrrolo[3,2-c]pyridin-4-one]: 6.43, 6.40 and 5.91.
The corresponding values for `Cn1c(-c2ccnc(NC(=O)c3cccc(Cl)c3)n2)cc2c1CCNC2=O` [compound 10, 3-Chloro-N-[4-(1-methyl-4-oxo-4,5,6,7-tetrahydro-1H-pyrrolo[3,2-c]pyridin-2-yl)-pyrimidin-2-yl]-benzamide] are 6.35, 5.80 and 5.70.
The corresponding values for `Cn1c(-c2ccnc(NC(=O)c3cccs3)n2)cc2c1CCNC2=O` [compound 11, Thiophene-2-carboxylic acid [4-(1-methyl-4-oxo-4,5,6,7-tetrahydro-1H-pyrrolo[3,2-c]pyridin-2-yl)-pyrimidin-2-yl]-amide] are 5.77, 5.54 and 5.62.
Turning to `Cn1c(-c2ccnc(NC(=O)c3ccsc3)n2)cc2c1CCNC2=O` [compound 12, Thiophene-3-carboxylic acid [4-(1-methyl-4-oxo-4,5,6,7-tetrahydro-1H-pyrrolo-[3,2-c]pyridin-2-yl)-pyrimidin-2-yl]-amide], the values for the pIC50 in assay [1], in assay [2] and in assay [3] were 5.60, 5.62 and 5.19, respectively.
The matching figures for `Cc1csc(C(=O)Nc2nccc(-c3cc4c(n3C)CCNC4=O)n2)c1` [compound 14, 4-Methyl-thiophene-2-carboxylic acid [4-(1-methyl-4-oxo-4,5,6,7-tetrahydro-1H-pyrrolo[3,2-c]pyridin-2-yl)-pyrimidin-2-yl]-amide]: 6.11, 5.84 and 5.58.
